Assay results reported in patent publication US7579375B2, “Branched carboxylic acid compound and use thereof” (Ono Pharmaceutical Co., Ltd., priority 2003, dated 2009).

How the values were obtained:
S100β = assay: Intracellular S100β content in secondary cultured astrocytes (ELISA); assay type: cell-based, rat; conditions: astrocytes treated 2 weeks, control group 2177.0±147.74
Excerpt: The 1 to 2 day-old neonatal Wistar rats (10 animals) were decapitated and sterilized their heads in ethanol. Ethanol and blood was removed in ice-cold DMEM medium (purchased from Sigma). Meningis was peeled and cortex of cerebrum was removed in ice-cold DMEM medium (purchased from Sigma) under the stereomicroscope. The cortex of cerebrum was minced with frosted glass-slides (purchased from Matsunami) to suspension in ice-cold DMEM medium (purchased from Sigma). Cell suspension was filtrated with 70 micrometer-diameter filter (falcon2350). The filtrate was centrifuged at 100×g for 3 minutes, and the pellet was re-suspended in 10% FCS (fetal calf serum)-containing DMEM medium. The washing procedure using 10% FCS-DMEM medium was repeated 3 times and cells were re-suspended in 10% FCS-DMEM medium. The obtained cell suspension was plated in 75 cm^2 flask (falcon3024) (one flask (containing 12 ml of medium) containing cells obtained from one neonatal rat), and cultured at 37° C. under an atmosphere of 5% CO2, 95% air (0 day of culture). After 2 days of culture (2 days of culture), culture media was aspirated and flask was shaken by hands to remove an unadhesive cells. The flask was washed with DMEM medium and the suspended cells ware removed. This procedure was repeated 3 times till the unadhesive cells were removed completely confirmed by microscope. Then, 10% FCS-DMEM medium was added to flask (12 ml/flask) and cultured at 37° C. under an atmosphere of 5% CO2, 95% air (medium was changed in 12 days after onset of culture).
Primary culture of Astrocytes (19 days after onset of culture, 3 flasks) was purified by the same procedure as used in cell purification in primary culture. Then, the adhesive cells were treated with 0.05% Trypsin-1 mmol/L EDTA at 37° C. till the cells were detached. The cells were suspended in 10% FCS-DMEM medium and transferred to microtube. After centrifugation at 100×g for 3 minutes, the pellet was resuspended in 10% FCS-DMEM medium. A portion of cell suspension was mixed with an equal volume of Trypan-Blue solution. The number of living cells was measured by using the Burker-Turk counting chamber under the phase-contrast microscope. Cells were suspended in 10% FCS-DMEM medium at the cell density of 2×10^5 cells/ml and cultured in 48 well culture plate (6 plates, 0.5 ml/well) at 37° C. under an atmosphere of 5% CO2, 95% air. After 24 hour cultivation, culture medium was changed to the test-compound containing medium (0.5 ml/well), and the cultivation was conducted for 2 weeks at 37° C. under an atmosphere of 5% CO2, 95% air. The change of medium was conducted on 27 days after onset of cultivation. […]

6 weeks-old male rat = assay: Long-term repetitive oral dosing, general side effect; assay type: in vivo; conditions: orally once daily, 250 mg/kg per once
Experimental: Each test compounds were dissolved with an aqueous solution of trisodium phosphate, and diluted with a water for injection. The obtained drug solution was orally administrated once daily to 6 weeks-old male rat by long-term repetitive dosing at a dose of 250 mg/kg per once.

SMILES	intracellular content of S100β (S100β; 30 micromol/L-treated group (n=4), P<0.001 Dunnett test) [ng/mg unit protein]	intracellular content of S100β (S100β; 100 micromol/L-treated group) [ng/mg unit protein]	general side effect (6 weeks-old male rat)
CCC[C@H](CCCCC(C)=O)C(=O)O [Example 1(1), (2R)-7-oxo-2-propyloctanoic acid]	1489.0±37.84	1053.5±39.57	does not show a general side effect
CCC[C@H](CCCC[C@@H](C)O)C(=O)O [Example 1(2), (2R,7R)-7-hydroxy-2-propyloctanoic acid]		1422.5±74.70	
CCC[C@H](CCCCCCO)C(=O)O [Example 1(4), (2R)-8-hydroxy-2-propyloctanoic acid]		1192.8±58.78	does not show a general side effect
